Measured values taken from US10226426B2, “Suspension containing nano-cocrystal and manufacturing method” (TAKEDA PHARMACEUTICAL COMPANY LIMITED, priority 2015, dated 2019).
Converted amounts (≈) assume the structure as drawn.

Legend:
[1] = value at 25° C. and 1 atm; cited from earlier work
[2] = Powder X-ray diffractometry, crystallinity by the Hermans method; assay type: physicochemical
Protocol: To be specific, powder samples (about 2 mg) were placed on a silicon sample plate, and scanned between 2 and 35 degrees (2θ) at a scan speed of 6 degrees/min. Powder samples such as nanoized FSD and the like were prepared by centrifuging suspensions thereof by cooling centrifugal machine Himac CR21G (manufactured by Hitachi Koki Co., Ltd.) at 19,000 rpm for 10 min and drying same. In addition, from the obtained X-ray diffraction patterns by the Hermans method, crystallinity before and after wet grinding was calculated.

crystallinity before wet grinding [2]	SMILES	water solubility [1]	diffraction pattern before and after wet grinding (dissociation of cocrystal) ([2]; wet grinding in 0.5% (w/v) HPMC and 0.02% (w/v) SDS)	formation of hydrate by wet grinding ([2]; diffraction pattern after wet grinding)
–	NC(N)=O [urea]	1,000 mg/mL	–	–
85%	NS(=O)(=O)c1cc(C(=O)O)c(NCc2ccco2)cc1Cl [Furosemide, furosemide]	–	did not show a marked difference in the diffraction pattern before and after the wet grinding	–
–	O=C1NS(=O)(=O)c2ccccc21 [Saccharin, saccharin]	3.4 mg/mL (≈ 18600 µM)	–	–
88%	NC(=O)N1c2ccccc2C=Cc2ccccc21 [anhydrous carbamazepine, carbamazepine]	0.22 mg/mL (≈ 931 µM)	–	formation of CBZ dihydrate could be confirmed
81%	COc1ccc2c(c1)c(CC(=O)O)c(C)n2C(=O)c1ccc(Cl)cc1 [indomethacin]	0.0095 mg/mL (≈ 26.6 µM)	–	–
